This passage reports Ki results from BindingDB's records for doi:10.1111/j.1432-1033.1992.tb17043.x (Universit&Eacute, 1992).

The experiment has as its target T1, Pituitary adenylate cyclase-activating polypeptide (Homo sapiens, UniProt P18509).
T1 sequence (P18509 whole entry): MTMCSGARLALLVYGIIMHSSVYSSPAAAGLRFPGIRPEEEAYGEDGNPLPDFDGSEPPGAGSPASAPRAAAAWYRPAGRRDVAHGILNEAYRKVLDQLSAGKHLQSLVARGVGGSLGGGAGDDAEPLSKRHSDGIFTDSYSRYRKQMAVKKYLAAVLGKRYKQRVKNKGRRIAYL

Non-standard residues stand in square brackets, D forms with d. Residues, ends and D or L forms follow the SMILES beside them. ξ: configuration not given here. Ile(3ξ) = CCC(C)[C@H](N)C(=O)O

With `CC[C@H](C)[C@H](NC(=O)CNC(=O)[C@H](CC(N)=O)NC(=O)[C@H](CO)NC(=O)[C@@H](N)Cc1cnc[nH]1)C(=O)N[C@@H](Cc1ccccc1)C(=O)N[C@H](C(=O)N[C@@H](CC(=O)O)C(=O)N[C@@H](CO)C(=O)N[C@@H](Cc1ccc(O)cc1)C(=O)N[C@@H](CO)C(=O)N[C@@H](CCCNC(=N)N)C(=O)N[C@@H](Cc1ccc(O)cc1)C(=O)N[C@@H](CCCNC(=N)N)C(=O)N[C@@H](CCCCN)C(=O)N[C@@H](CCC(N)=O)C(=O)N[C@@H](CCSC)C(=O)N[C@@H](C)C(=O)N[C@H](C(=O)N[C@@H](CCCCN)C(=O)N[C@@H](CCCCN)C(=O)N[C@@H](Cc1ccc(O)cc1)C(=O)N[C@@H](CC(C)C)C(=O)N[C@@H](C)C(=O)N[C@@H](C)C(=O)N[C@H](C(=O)N[C@@H](CC(C)C)C(N)=O)C(C)C)C(C)C)[C@@H](C)O` [[Asn3]PACAP(1-27)], the Ki – broadly, the dissociation constant of the complex between target and ligand, obtained from inhibition or displacement – is 200 nM.

The compound `CCC(C)[C@H](NC(=O)CNC(=O)[C@H](CC(=O)O)NC(=O)[C@@H](Cc1ccccc1)NC(=O)[C@@H](N)Cc1cnc[nH]1)C(=O)N[C@@H](Cc1ccccc1)C(=O)N[C@H](C(=O)N[C@@H](CC(=O)O)C(=O)N[C@@H](CO)C(=O)N[C@@H](Cc1ccc(O)cc1)C(=O)N[C@@H](CO)C(=O)N[C@@H](CCCN=C(N)N)C(=O)N[C@@H](Cc1ccc(O)cc1)C(=O)N[C@@H](CCCN=C(N)N)C(=O)N[C@@H](CCCCN)C(=O)N[C@@H](CCC(N)=O)C(=O)N[C@@H](CCSC)C(=O)N[C@@H](C)C(=O)N[C@H](C(=O)N[C@@H](CCCCN)C(=O)N[C@@H](CCCCN)C(=O)N[C@@H](Cc1ccc(O)cc1)C(=O)N[C@@H](CC(C)C)C(=O)N[C@@H](C)C(=O)N[C@@H](C)C(=O)N[C@H](C(=O)N[C@@H](CC(C)C)C(N)=O)C(C)C)C(C)C)[C@@H](C)O` (stereo partly drawn) [[D-Phe2]PACAP-27] had a Ki of 300 nM.

In the case of `CCC(C)[C@H](NC(=O)CNC(=O)[C@H](CC(=O)O)NC(=O)[C@@H](Cc1ccccc1)NC(=O)[C@@H](N)Cc1cnc[nH]1)C(=O)N[C@@H](Cc1ccccc1)C(=O)N[C@H](C(=O)N[C@@H](CC(=O)O)C(=O)N[C@@H](CO)C(=O)N[C@@H](Cc1ccc(O)cc1)C(=O)N[C@@H](CO)C(=O)N[C@@H](CCCN=C(N)N)C(=O)N[C@@H](Cc1ccc(O)cc1)C(=O)N[C@@H](CCCN=C(N)N)C(=O)N[C@@H](CCCCN)C(=O)N[C@@H](CCC(N)=O)C(=O)N[C@@H](CCSC)C(=O)N[C@@H](C)C(=O)N[C@H](C(=O)N[C@@H](CCCCN)C(=O)N[C@@H](CCCCN)C(=O)N[C@@H](Cc1ccc(O)cc1)C(=O)N[C@@H](CC(C)C)C(=O)N[C@@H](C)C(=O)N[C@@H](C)C(=O)N[C@H](C(=O)N[C@@H](CC(C)C)C(=O)NCC(=O)N[C@@H](CCCCN)C(=O)N[C@@H](CCCN=C(N)N)C(=O)N[C@@H](Cc1ccc(O)cc1)C(=O)N[C@@H](CCCCN)C(=O)N[C@@H](CCC(N)=O)C(=O)N[C@@H](CCCN=C(N)N)C(=O)N[C@H](C(=O)N[C@@H](CCCCN)C(=O)N[C@@H](CC(N)=O)C(=O)N[C@@H](CCCCN)C(N)=O)C(C)C)C(C)C)C(C)C)[C@@H](C)O` (stereo partly drawn) [[D-Phe2]PACAP-38] (H-H[dF]DG[Ile(3ξ)]FTDSYSRYRKQMAVKKYLAAVLGKRYKQRVKNK-NH2), the affinity corresponds to a Ki of 10 nM.

As for `CCC(C)[C@H](NC(=O)CNC(=O)[C@H](CC(=O)O)NC(=O)[C@H](Cc1ccccc1)NC(=O)[C@@H](N)Cc1cnc[nH]1)C(=O)N[C@@H](Cc1ccccc1)C(=O)N[C@H](C(=O)N[C@@H](CC(=O)O)C(=O)N[C@@H](CO)C(=O)N[C@@H](Cc1ccc(O)cc1)C(=O)N[C@@H](CO)C(=O)N[C@@H](CCCN=C(N)N)C(=O)N[C@@H](Cc1ccc(O)cc1)C(=O)N[C@@H](CCCN=C(N)N)C(=O)N[C@@H](CCCCN)C(=O)N[C@@H](CCC(N)=O)C(=O)N[C@@H](CCSC)C(=O)N[C@@H](C)C(=O)N[C@H](C(=O)N[C@@H](CCCCN)C(=O)N[C@@H](CCCCN)C(=O)N[C@@H](Cc1ccc(O)cc1)C(=O)N[C@@H](CC(C)C)C(=O)N[C@@H](C)C(=O)N[C@@H](C)C(=O)N[C@H](C(=O)N[C@@H](CC(C)C)C(N)=O)C(C)C)C(C)C)[C@@H](C)O` (stereo partly drawn) [[Phe2]PACAP(1-27)], affinity was put at a Ki of 200 nM.

In turn, `CCC(C)[C@H](NC(=O)CNC(=O)[C@H](CC(=O)O)NC(=O)[C@H](Cc1ccccc1)NC(=O)[C@@H](N)Cc1cnc[nH]1)C(=O)N[C@@H](Cc1ccccc1)C(=O)N[C@H](C(=O)N[C@@H](CC(=O)O)C(=O)N[C@@H](CO)C(=O)N[C@@H](Cc1ccc(O)cc1)C(=O)N[C@@H](CO)C(=O)N[C@@H](CCCN=C(N)N)C(=O)N[C@@H](Cc1ccc(O)cc1)C(=O)N[C@@H](CCCN=C(N)N)C(=O)N[C@@H](CCCCN)C(=O)N[C@@H](CCC(N)=O)C(=O)N[C@@H](CCSC)C(=O)N[C@@H](C)C(=O)N[C@H](C(=O)N[C@@H](CCCCN)C(=O)N[C@@H](CCCCN)C(=O)N[C@@H](Cc1ccc(O)cc1)C(=O)N[C@@H](CC(C)C)C(=O)N[C@@H](C)C(=O)N[C@@H](C)C(=O)N[C@H](C(=O)N[C@@H](CC(C)C)C(=O)NCC(=O)N[C@@H](CCCCN)C(=O)N[C@@H](CCCN=C(N)N)C(=O)N[C@@H](Cc1ccc(O)cc1)C(=O)N[C@@H](CCCCN)C(=O)N[C@@H](CCC(N)=O)C(=O)N[C@@H](CCCN=C(N)N)C(=O)N[C@H](C(=O)N[C@@H](CCCCN)C(=O)N[C@@H](CC(N)=O)C(=O)N[C@@H](CCCCN)C(N)=O)C(C)C)C(C)C)C(C)C)[C@@H](C)O` (stereo partly drawn) [[Phe2]PACAP(1-38)] (H-HFDG[Ile(3ξ)]FTDSYSRYRKQMAVKKYLAAVLGKRYKQRVKNK-NH2) gave a Ki of 10 nM.

In turn, “H-FTDSYSRYRKQMAVKKYLAAVL-NH2 [PACAP(5-27)]” returned a Ki of 60 nM.

As to “H-TDSYSRYRKQMAVKKYLAAVL-NH2 [PACAP(6-27)]”, the Ki was found to be 200 nM.

Consider “H-TDSYSRYRKQMAVKKYLAAVLGKRYKQRVKNK-NH2 [PACAP(7-38)]”, for which affinity was put at a Ki of 8 nM.
